In ChEMBL document CHEMBL3124760, “Inhibitors of NS5A for Treatment of HCV Infection” (ACS Med Chem Lett, 2014):

Tested on: Hepatitis C virus
Assay: Antiviral activity against Hepatitis C virus genotype 1a expressing neomycin phosphotransferase after 3 days by luciferase reporter gene assay
Type: functional, organism-based, Hepacivirus hominis
Settings: subtype 1a, 72 h

Compound	EC50 [pM]
COC(=O)N[C@H](C(=O)N1CC2(C[C@H]1c1nc3cc(-c4ccc5cc(-c6cnc([C@@H]7C[C@H]8C[C@H]8N7C(=O)[C@@H](NC(=O)OC)C(C)C)[nH]6)ccc5c4)ccc3c(=O)[nH]1)OCCCO2)C(C)C	26
COC(=O)N[C@H](C(=O)N1CCC[C@H]1c1ncc(-c2ccc3cc(-c4ccc5c(=O)[nH]c([C@@H]6C[C@@H]7CCCC[C@@H]7N6C(=O)[C@@H](NC(=O)OC)C(C)C)nc5c4)ccc3c2)[nH]1)C(C)C	6
COC(=O)N[C@H](C(=O)N1CCC[C@H]1c1nc2cc(-c3ccc4cc(-c5cnc([C@@H]6C[C@H]7C[C@H]7N6C(=O)[C@@H](NC(=O)OC)C(C)C)[nH]5)ccc4c3)ccc2c(=O)[nH]1)C(C)C	6
COC(=O)N[C@H](C(=O)N1CC2(C[C@H]1c1ncc(-c3ccc4cc(-c5ccc6c(=O)[nH]c([C@@H]7C[C@H]8C[C@H]8N7C(=O)[C@@H](NC(=O)OC)C(C)C)nc6c5)ccc4c3)[nH]1)OCCO2)C(C)C	8
